# Key:
# [1] = biological target: TBK1 (Homo sapiens (Human), UniProt Q9UHD2); assay: TR-FRET kinase assay, TBK1; settings: read-out: TBK1-IC50; full length recombinant TBK1 2.5 nM, 2x Km ATP, 1 μM peptide, 240 min at 25° C.; geometric mean of minimum four determinations
# Sequence of TBK1 (Q9UHD2 whole entry): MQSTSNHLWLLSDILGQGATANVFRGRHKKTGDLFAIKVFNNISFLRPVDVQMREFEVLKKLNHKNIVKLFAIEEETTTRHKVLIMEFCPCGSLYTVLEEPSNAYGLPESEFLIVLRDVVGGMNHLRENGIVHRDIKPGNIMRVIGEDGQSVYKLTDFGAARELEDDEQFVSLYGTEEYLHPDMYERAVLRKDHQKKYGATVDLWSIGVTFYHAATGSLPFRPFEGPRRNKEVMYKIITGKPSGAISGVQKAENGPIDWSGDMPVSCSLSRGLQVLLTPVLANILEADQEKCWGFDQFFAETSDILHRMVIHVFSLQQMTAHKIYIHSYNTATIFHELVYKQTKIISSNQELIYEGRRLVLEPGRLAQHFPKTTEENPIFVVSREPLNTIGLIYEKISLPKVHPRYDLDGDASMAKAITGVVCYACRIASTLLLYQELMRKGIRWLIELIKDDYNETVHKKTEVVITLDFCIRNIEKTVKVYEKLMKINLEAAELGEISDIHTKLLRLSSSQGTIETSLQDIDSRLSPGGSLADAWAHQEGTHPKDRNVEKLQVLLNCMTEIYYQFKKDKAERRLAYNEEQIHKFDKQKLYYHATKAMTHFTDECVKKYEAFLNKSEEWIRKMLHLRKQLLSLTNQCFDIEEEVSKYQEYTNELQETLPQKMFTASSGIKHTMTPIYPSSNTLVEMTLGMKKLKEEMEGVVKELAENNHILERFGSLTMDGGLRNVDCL
# [2] = biological target: IKKε (Homo sapiens (Human), UniProt Q14164); assay: TR-FRET kinase assay, IKKε; type: biochemical; settings: full length recombinant IKKε 0.3 nM, 2x Km ATP, 1 μM peptide, 240 min at 25° C.; geometric mean of minimum four determinations
# Sequence of IKKε (Q14164 whole entry): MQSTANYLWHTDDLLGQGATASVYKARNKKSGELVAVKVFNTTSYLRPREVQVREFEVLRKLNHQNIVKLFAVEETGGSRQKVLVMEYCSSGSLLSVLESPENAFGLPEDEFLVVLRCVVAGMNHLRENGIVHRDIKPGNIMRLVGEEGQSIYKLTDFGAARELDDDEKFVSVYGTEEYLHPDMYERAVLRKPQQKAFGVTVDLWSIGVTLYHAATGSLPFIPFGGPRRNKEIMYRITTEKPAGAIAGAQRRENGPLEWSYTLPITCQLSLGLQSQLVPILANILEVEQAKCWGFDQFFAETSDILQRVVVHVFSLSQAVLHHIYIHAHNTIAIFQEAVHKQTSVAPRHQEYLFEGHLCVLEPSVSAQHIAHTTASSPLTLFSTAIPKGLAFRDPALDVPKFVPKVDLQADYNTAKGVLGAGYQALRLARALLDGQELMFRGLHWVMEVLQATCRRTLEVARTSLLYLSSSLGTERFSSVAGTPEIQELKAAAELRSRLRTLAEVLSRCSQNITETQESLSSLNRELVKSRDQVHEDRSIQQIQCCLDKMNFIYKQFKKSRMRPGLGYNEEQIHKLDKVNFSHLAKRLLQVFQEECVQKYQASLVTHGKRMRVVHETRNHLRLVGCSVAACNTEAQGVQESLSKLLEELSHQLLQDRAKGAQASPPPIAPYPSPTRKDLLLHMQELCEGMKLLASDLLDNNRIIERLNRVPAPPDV
# Excerpt: Biological Assay for TBK1 and IKKs:
Structure (SMILES),IC50 [1] [µM],IC50 [2] [µM]
"N#Cc1cc(-c2ccnc3[nH]c(-c4ccc(N5CCOCC5)cc4)nc23)ccc1OCC1CC1 [Example 301, 2-(cyclopropylmethoxy)-5-(2-(4-morpholinophenyl)-3H-imidazo[4,5-b]pyridin-7-yl)benzonitrile]",0.0435,> 1
"CC(C)(C)OC(=O)N1CC[C@@H](Oc2ccc(-c3ccnc4[nH]c(-c5ccc(N6CCOCC6)cc5)nc34)cc2C#N)C1 [Example 302, (R)-tert-butyl 3-(2-cyano-4-(2-(4-morpholinophenyl)-3H-imidazo[4,5-b]pyridin-7-yl)phenoxy)pyrrolidine-1-carboxylate]",> 1,> 1
"N#Cc1nc(-c2ccnc3[nH]c(-c4ccc(N5CCOCC5)cc4)nc23)ccc1OC1CCOCC1 [Example 304, 6-(2-(4-morpholinophenyl)-3H-imidazo[4,5-b]pyridin-7-yl)-3-((tetrahydro-2H-pyran-4-yl)oxy)picolinonitrile]",0.00925,0.0186
"N#Cc1cc(-c2ccnc3[nH]c(-c4ccc(N5CCOCC5)cc4)nc23)ccc1OC1CCOCC1 [Example 305, 5-(2-(4-morpholinophenyl)-3H-imidazo[4,5-b]pyridin-7-yl)-2-((tetrahydro-2H-pyran-4-yl)oxy)benzonitrile]",0.0032,0.0108
"N#Cc1cc(-c2cnnc3[nH]c(-c4ccc(N5CCOCC5)cc4)nc23)ccc1OC1CCOCC1 [Example 401, 5-(8-(4-morpholinophenyl)-9H-imidazo[4,5-c]pyridazin-6-yl)-2-((tetrahydro-2H-pyran-4-yl)oxy)benzonitrile]",> 1,> 1

# Now from value to molecule:
IC50 [1] [µM],IC50 [2] [µM],Structure (SMILES)
0.0162,0.0587,"N#Cc1cc(-c2ncnc3[nH]c(-c4ccc(N5CCN(CC(F)F)CC5)cc4)cc23)ccc1OC1CCNCC1 [Example 265, 5-(6-(4-(4-(2,2-difluoroethyl)piperazin-1-yl)phenyl)-7H-pyrrolo[2,3-d]pyrimidin-4-yl)-2-(piperidin-4-yloxy)benzonitrile]"
0.00887,0.00795,"N#Cc1cc(-c2ncnc3[nH]c(-c4ccc(CN5CCOCC5)cc4)nc23)ccc1OC1CCN(C(=O)C(F)F)CC1 [Example 266, 2-((1-(2,2-difluoroacetyl)piperidin-4-yl)oxy)-5-(8-(4-(morpholinomethyl)phenyl)-9H-purin-6-yl)benzonitrile]"
1,1,"CN(C)Cc1ccc(-c2nc3c(-c4ccc(OC5CCN(C(=O)C(F)F)CC5)c(C#N)c4)ncnc3[nH]2)cc1 [Example 267, 2-((1-(2,2-difluoroacetyl)piperidin-4-yl)oxy)-5-(8-(4-((dimethylamino)methyl)phenyl)-9H-purin-6-yl)benzonitrile]"
0.00392,0.00225,"CN1CCN(c2ccc(-c3nc4c(-c5ccc(OC6CCN(C(=O)C(F)F)CC6)c(C#N)c5)ncnc4[nH]3)cc2)CC1 [Example 268, 2-((1-(2,2-difluoroacetyl)piperidin-4-yl)oxy)-5-(8-(4-(4-methylpiperazin-1-yl)phenyl)-9H-purin-6-yl)benzonitrile]"
0.00459,0.00751,"N#CCC(=O)N1CC[C@@H](Oc2ccc(-c3ccnc4[nH]c(-c5ccc(N6CCOCC6)cc5)nc34)cc2C#N)C1 [Example 303, (R)-2-((1-(2-cyanoacetyl)pyrrolidin-3-yl)oxy)-5-(2-(4-morpholinophenyl)-3H-imidazo[4,5-b]pyridin-7-yl)benzonitrile]"
0.00185,0.00121,"CN1CCN(c2ccc(-c3nc4c(-c5ccc(OC6CCOCC6)c(C#N)c5)ccnc4[nH]3)cc2)CC1 [Example 306, 5-(2-(4-(4-methylpiperazin-1-yl)phenyl)-3H-imidazo[4,5-b]pyridin-7-yl)-2-((tetrahydro-2H-pyran-4-yl)oxy)benzonitrile]"
0.0442,0.0213,"Cn1cc(-c2nc3c(-c4ccc(OC5CCOCC5)c(C#N)c4)ccnc3[nH]2)cn1 [Example 307, 5-(2-(1-methyl-1H-pyrazol-4-yl)-3H-imidazo[4,5-b]pyridin-7-yl)-2-((tetrahydro-2H-pyran-4-yl)oxy)benzonitrile]"
0.0251,0.0181,"N#Cc1cc(-c2ccnc3[nH]c(-c4cccc(N5CCOCC5)c4)nc23)ccc1OC1CCOCC1 [Example 308, 5-(2-(3-morpholinophenyl)-3H-imidazo[4,5-b]pyridin-7-yl)-2-((tetrahydro-2H-pyran-4-yl)oxy)benzonitrile]"

# Source: patent US10072001B2, “Tank-binding kinase inhibitor compounds” (Gilead Sciences, Inc., priority 2014, dated 2018)
